The assay concerns CAL51 cell proliferation. As to the kind of experiment: Cell Titer Glo Proliferation Assay (CAL51). It counts as cell-based, human. Conditions: Homo sapiens, CAL-51; CAL51 cell proliferation, 72 h, Cell Titer Glo luminescence; read-out: Act. Level. Put shortly: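 CAL51 triple-negative breast cancer cells in DMEM or RPMI with 10% FBS were treated after overnight culture with serially diluted compound at 0.2% final DMSO. After 72 h, viability was read as CellTiter-Glo luminescence.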
In general terms: In ATP-based viability assays light output follows the ATP content of the culture.

`CNC(=O)c1ccc(Nc2nc(OC(C)C)c3c(-c4ccnc(NC)c4)c[nH]c3n2)c(OC)c1` [Example 199, 4-(4-isopropoxy-5-(2-(methylamino)pyridin-4-yl)-7H-pyrrolo[2,3-d]pyrimidin-2-ylamino)-3-methoxy-N-methylbenzamide]: the IC50 is < 100 nM.

In the case of `COc1cc(C(=O)N(C)CCO)ccc1Nc1nc(OC2CCCC2)c2c(-c3ccc4nc(C)oc4c3)c[nH]c2n1` [Example 233, 4-(4-(cyclopentyloxy)-5-(2-methylbenzo[d]oxazol-6-yl)-7H-pyrrolo[2,3-d]pyrimidin-2-ylamino)-N-(2-hydroxyethyl)-3-methoxy-N-methylbenzamide], the IC50 was < 100 nM.

In the case of `CCOc1ccc(-c2c[nH]c3nc(Nc4ccc(C(=O)N(C)C)cc4C)nc(OC4CCOCC4)c23)cn1` [Example 109, 4-(5-(6-ethoxypyridin-3-yl)-4-(tetrahydro-2H-pyran-4-yloxy)-7H-pyrrolo[2,3-d]pyrimidin-2-ylamino)-N,N,3-trimethylbenzamide], the IC50 is < 100 nM.

On to `COc1cc(C(=O)NC[C@@H]2CCCO2)ccc1Nc1nc(OC2CCCC2)c2c(-c3ccc4nc(C)oc4c3)c[nH]c2n1` [Example 254, (S)-4-(4-(cyclopentyloxy)-5-(2-methylbenzo[d]oxazol-6-yl)-7H-pyrrolo[2,3-d]pyrimidin-2-ylamino)-3-methoxy-N-((tetrahydrofuran-2-yl)methyl) benzamide], for which the IC50 was in the range of 100 to 400 nM.

For `CNC(=O)c1ccc(Nc2nc(OC3CCCC3)c3c(-c4ccc(O)c(C)c4)c[nH]c3n2)c(OC)c1` [Example 43, 4-(4-(cyclopentyloxy)-5-(4-hydroxy-3-methylphenyl)-7H-pyrrolo[2,3-d]pyrimidin-2-ylamino)-3-methoxy-N-methylbenzamide], the IC50 is < 100 nM.

Regarding `COc1cc(CN)ccc1Nc1nc(OC2CCCC2)c2c(-c3ccc(O)cc3)c[nH]c2n1` [Example 52, 4-(2-(4-(aminomethyl)-2-methoxyphenylamino)-4-(cyclopentyloxy)-7H-pyrrolo[2,3-d]pyrimidin-5-yl)phenol], the IC50 is 100 to 400 nM.

On to `CNC(=O)c1ccc(Nc2nc(OC(C)C)c3c(-c4ccc5nc(C)oc5c4)c[nH]c3n2)c(OC)c1` [Example 125, 4-(4-isopropoxy-5-(2-methylbenzo[d]oxazol-6-yl)-7H-pyrrolo[2,3-d]pyrimidin-2-ylamino)-3-methoxy-N-methylbenzamide], for which the IC50 was < 100 nM.

In the case of `Cc1cc(C(=O)N(C)C)ccc1Nc1nc(O[C@H]2CCOC2)c2c(-c3cnn(C)c3)c[nH]c2n1` [Example 164, (S)-N,N,3-trimethyl-4-(5-(1-methyl-1H-pyrazol-4-yl)-4-(tetrahydrofuran-3-yloxy)-7H-pyrrolo[2,3-d]pyrimidin-2-ylamino)benzamide], the IC50 was < 100 nM.

As to `CNC(=O)c1cc(OC)c(Nc2nc(OC3CCCC3)c3c(-c4ccc5nc(C)oc5c4)c[nH]c3n2)cn1` [Example 280, 5-(4-(cyclopentyloxy)-5-(2-methylbenzo[d]oxazol-6-yl)-7H-pyrrolo[2,3-d]pyrimidin-2-ylamino)-4-methoxy-N-methylpicolinamide], the IC50 is < 100 nM.

With `COc1nc(Nc2ccc(C(=O)N(C)C)cc2Cl)nc2[nH]cc(-c3ccncc3)c12` [Example 157, 3-chloro-4-(4-methoxy-5-(pyridin-4-yl)-7H-pyrrolo[2,3-d]pyrimidin-2-ylamino)-N,N-dimethylbenzamide], the IC50 lay within 100 to 400 nM.

Turning to `CNC(=O)c1ccc(Nc2nc(OC3CCCC3)c3c(-c4ccc(N)cc4)c[nH]c3n2)c(OC)c1` [Example 37, 4-(5-(4-aminophenyl)-4-(cyclopentyloxy)-7H-pyrrolo[2,3-d]pyrimidin-2-ylamino)-3-methoxy-N-methylbenzamide], the IC50 was < 100 nM.

In the case of `CNC(=O)c1ccc(Nc2nc(OC3CCCC3)c3c(-c4cccc(S(C)(=O)=O)c4)c[nH]c3n2)c(OC)c1` [Example 63, 4-(4-(cyclopentyloxy)-5-(3-(methyl-sulfonyl)phenyl)-7H-pyrrolo[2,3-d]pyrimidin-2-ylamino)-3-methoxy-N-methylbenzamide], the IC50 was < 100 nM.

As for `CNC(=O)c1ccc(Nc2nc(OC3CCOCC3)c3c(-c4cc5oc(C)nc5cc4C)c[nH]c3n2)c(OC)c1` [Example 136, 4-(5-(2,5-dimethylbenzo[d]oxazol-6-yl)-4-(tetrahydro-2H-pyran-4-yloxy)-7H-pyrrolo[2,3-d]pyrimidin-2-ylamino)-3-methoxy-N-methylbenzamide], the IC50 lay in the range of 1000 to 10000 nM.

`CNC(=O)c1ccc(Nc2nc(OC3CCOCC3)c3c(-c4ccc(-c5nccn5C)cc4)c[nH]c3n2)c(OC)c1` [Example 195, 3-methoxy-N-methyl-4-(5-(4-(1-methyl-1H-imidazol-2-yl)phenyl)-4-(tetrahydro-2H-pyran-4-yloxy)-7H-pyrrolo[2,3-d]pyrimidin-2-ylamino)benzamide]: the IC50 lay within 1000 to 10000 nM.

Regarding `Cc1cc(C(=O)N(C)C)ccc1Nc1nc(OC2CCOCC2)c2c(-c3ccn(C)n3)c[nH]c2n1` [Example 113, N,N,3-trimethyl-4-(5-(1-methyl-1H-pyrazol-3-yl)-4-(tetrahydro-2H-pyran-4-yloxy)-7H-pyrrolo[2,3-d]pyrimidin-2-ylamino)benzamide], the IC50 lay in the range of 400 to 1000 nM.

`CNC(=O)c1ccc(-c2c[nH]c3nc(Nc4ccnn4C)nc(OC4CCCC4)c23)cc1` [Example 316, 4-(4-(cyclopentyloxy)-2-(1-methyl-1H-pyrazol-5-ylamino)-7H-pyrrolo [2,3-d]pyrimidin-5-yl)-N-methylbenzamide]: the IC50 was < 100 nM.

In the case of `CNC(=O)c1ccc(Nc2nc(OC3CCCC3)c3c(-c4ccc5c(ccn5C)c4)c[nH]c3n2)c(OC)c1` [Example 78, 4-(4-(cyclopentyloxy)-5-(1-methyl-1H-indol-5-yl)-7H-pyrrolo[2,3-d]pyrimidin-2-ylamino)-3-methoxy-N-methylbenzamide], the IC50 was 1000 to 10000 nM.

Take `CNC(=O)c1ccc(Nc2nc(NC3CCCCC3)c3c(-c4ccc(O)cc4)c[nH]c3n2)c(OC)c1` [Example 36, 4-(4-(cyclohexylamino)-5-(4-hydroxyphenyl)-7H-pyrrolo[2,3-d]pyrimidin-2-ylamino)-3-methoxy-N-methylbenzamide]: the IC50 is < 100 nM.

For `COc1cc(C(=O)N2C[C@@H](OC)[C@H](OC)C2)ccc1Nc1nc(OC2CCCC2)c2c(-c3ccc4nc(C)oc4c3)c[nH]c2n1` [Example 311, (4-(4-(cyclopentyloxy)-5-(2-methylbenzo[d]oxazol-6-yl)-7H-pyrrolo[2,3-d]pyrimidin-2-ylamino)-3-methoxyphenyl) ((3R,4R)-3,4-dimethoxypyrrolidin-1-yl)methanone], the IC50 is < 100 nM.

For the molecule `COc1cc(C(=O)N[C@H]2CCC[C@@H]2O)ccc1Nc1nc(OC2CCCC2)c2c(-c3ccc4nc(C)oc4c3)c[nH]c2n1` [Example 265, 4-(4-(cyclopentyloxy)-5-(2-methylbenzo[d]oxazol-6-yl)-7H-pyrrolo[2,3-d]pyrimidin-2-ylamino)-N-((1S,2S)-2-hydroxy-cyclopentyl)-3-methoxybenzamide], the IC50 is 100 to 400 nM.

Take `CNC(=O)c1ccc(Nc2nc(OC3CCOCC3)c3c(-c4ccc5nc(C)oc5c4)c[nH]c3n2)c(OC)n1` [Example 183, 6-methoxy-N-methyl-5-(5-(2-methylbenzo[d]oxazol-6-yl)-4-(tetrahydro-2H-pyran-4-yloxy)-7H-pyrrolo[2,3-d]pyrimidin-2-yalmino)picolinamide]: the IC50 is 100 to 400 nM.

Consider `COc1cc(C(=O)N(C)C)ccc1Nc1nc(OC2CCCC2)c2c(-c3ccc4nc(C)oc4c3)c[nH]c2n1` [Example 91, 4-(4-(cyclopentyloxy)-5-(2-methylbenzo[d]oxazol-6-yl)-7H-pyrrolo[2,3-d]pyrimidin-2-ylamino)-3-methoxy-N,N-dimethylbenzamide], for which the IC50 fell in the range of 100 to 400 nM.

Consider `CC[C@H](C)Oc1nc(Nc2ccc(C(=O)NC)cc2OC)nc2[nH]cc(-c3cnn(C)c3)c12` [Example 276, (S)-4-(4-sec-butoxy-5-(1-methyl-1H-pyrazol-4-yl)-7H-pyrrolo[2,3-d]pyrimidin-2-ylamino)-3-methoxy-N-methylbenzamide], for which the IC50 is < 100 nM.

Regarding `CNC(=O)c1ccc(-c2c[nH]c3nc(Nc4ccnn4C)nc(OC4CCOCC4)c23)cc1` [Example 317, N-methyl-4-(2-(1-methyl-1H-pyrazol-5-ylamino)-4-(tetrahydro-2H-pyran-4-yloxy)-7H-pyrrolo [2,3-d]pyrimidin-5-yl)benzamide], the IC50 was 400 to 1000 nM.

Take `COc1cc(C(=O)NC2(C)COC2)ccc1Nc1nc(OC2CCCC2)c2c(-c3ccc4nc(C)oc4c3)c[nH]c2n1` [Example 301, 4-(4-(cyclopentyloxy)-5-(2-methylbenzo[d]oxazol-6-yl)-7H-pyrrolo[2,3-d]pyrimidin-2-ylamino)-3-methoxy-N-(3-methyloxetan-3-yl)benzamide]: the IC50 was 100 to 400 nM.

For `CNC(=O)c1ccc(Nc2nc(O[C@H]3CC[C@H](O)CC3)c3c(-c4ccc(O)cc4)c[nH]c3n2)c(OC)c1` [Example 45, 4-(4-((1r,4R)-4-hydroxycyclo-hexyloxy)-5-(4-hydroxyphenyl)-7H-pyrrolo[2,3-d]pyrimidin-2-ylamino)-3-methoxy-N-methylbenzamide], the IC50 is < 100 nM.

On to `CC[C@H](C)Oc1nc(Nc2ccc(C(=O)NCCO)cc2OC)nc2[nH]cc(-c3cnn(C)c3)c12` [Example 286, (S)-4-(4-sec-butoxy-5-(1-methyl-1H-pyrazol-4-yl)-7H-pyrrolo [2,3-d]pyrimidin-2-ylamino)-N-(2-hydroxyethyl)-3-methoxybenzamide], for which the IC50 was 100 to 400 nM.

For the molecule `COc1cc(C(=O)NC2CCOCC2)ccc1Nc1nc(OC2CCCC2)c2c(-c3ccc4nc(C)oc4c3)c[nH]c2n1` [Example 252, 4-(4-(cyclopentyloxy)-5-(2-methylbenzo[d]oxazol-6-yl)-7H-pyrrolo[2,3-d]pyrimidin-2-ylamino)-3-methoxy-N-(tetrahydro-2H-pyran-4-yl)benzamide], the IC50 is 100 to 400 nM.

In the case of `CCOc1ccc(-c2c[nH]c3nc(Nc4ccc(C(=O)NC)cc4C)nc(O[C@H]4CCOC4)c23)cn1` [Example 162, (S)-4-(5-(6-ethoxypyridin-3-yl)-4-(tetrahydrofuran-3-yloxy)-7H-pyrrolo[2,3-d]pyrimidin-2-ylamino)-N,3-dimethylbenzamide], the IC50 is 100 to 400 nM.

These data come from patent publication US9346812B2, “Substituted pyrrolopyrimidine compounds, compositions thereof, and methods of treatment therewith” (Signal Pharmaceutical LLC, priority 2013, dated 2016).
